Assay results as given in patent publication US7622266B2, “Identification of a synthetic ligand for retinoic acid receptor beta” (Institut Pasteur, priority 1987, dated 2009).
pEC50: −log10 of the molar value. Numbered stars: 1 amine (or outer) side, 2 acyl side, 3 side chain; on linkers, the order of the positions; unused ones are H or OH. Bridge positions count the residues as written; N and C are the ends. Square brackets hold non-standard residues; d marks the D form. Peptide text beside a SMILES is read from it. I, II: the chains in the order shown. Actinocin(9to1) = Cc1c2oc3c(C)ccc(C(=O)[*:1])c3nc-2c(C(=O)[*:2])c(N)c1=O; NMeV = CN[C@H](C(=O)O)C(C)C; Sar = CNCC(=O)O

How the values were obtained:
[1] = system: RAR α mRNAs in PLC/PRF/5 cells; test: Northern blot of RAR α mRNAs in PLC/PRF/5 cells; assay type: cell-based, human; conditions: RA up to 10^−6 M
Experimental: (§1) More particularly, semi-confluent cells were grown for 6 hr in charcoal stripped medium and retinoic acid was then added to the medium at various concentrations (10^−10 M to 10^−6 M) for 4 hr. Control cells were treated with ethanol (E). Northern-blotting was performed as described in connection with FIG. 9, except that 30 μg of total RNA was used.
(§2) Exposure time was 12 hr for the β probe (FIG. 10B, lower panel) and four days for the α probe (FIG. 10B, upper panel).
(§3) Northern-blotting was carried on using 30 ug of total RNA. […] Exposure times were the same as for the experiments in FIG. 10.
(§4) Human tissue samples were obtained from early autopsies and kept at −80° C. prior to extraction. The HEPG 2 and PLC/PRF/5 hepatoma cell-lines were grown in Dulbecco's modified Eagle's medium with 10% fetal calf serum, glutamine, and antibiotics, in 5% CO2.
The RNA was prepared by the hot phenol procedure (Maniatis et al., 1982). Poly(A)^+ mRNA was prepared by oligo(dT)-cellulose ilchromatography. For Northern-blot analysis, total RNA (30 μg) or poly(A)^+ mRNA (5 μg) was denatured by glyoxal and fractionated on a 1.2% agarose gel (Maniatis et al., 1982). The nucleic acid was transferred to nylon membranes (Amersham) by blotting and attached by UV exposure plus baking. […]

[2] = system: RAR β mRNAs in HEPG2 hepatoma cell-line; test: Northern blot of RAR β mRNAs in HEPG2 cells; assay type: cell-based, human
Experimental: as §4
(§5) The RNA was prepared by the hot phenol procedure (Maniatis et al., 1982). Poly(A)^+ mRNA was prepared by oligo(dT)-cellulose ilchromatography. For Northern-blot analysis, total RNA (30 μg) or poly(A)^+ mRNA (5 μg) was denatured by glyoxal and fractionated on a 1.2% agarose gel (Maniatis et al., 1982). The nucleic acid was transferred to nylon membranes (Amersham) by blotting and attached by UV exposure plus baking.
The two cDNA inserts were subcloned into M13 and used to generate high specific activity (greater than 10^9 c.p.m./μg) single-stranded probes by elongation of a sequencing primer with ^32P labelled dTTP (3000 Ci/mmol) and unlabelled nucleotides by Klenow polymerase. The resulting double-stranded DNA was digested using a unique site in the vector, fractioned on a urea/acrylamide sequencing gel, and the labelled single-stranded insert electroeluted. These probes (5×10^6 cpm/ml) were hybridized to the filters in 7% (w/v) sodium dodecyl sulfate (SDS), 0.5 M NaPO4 pH 6.5, 1 mM ethylenediaminetetraacetate (EDTA), and 1 mg/ml bovine serum albumin (BSA) at 68° C. overnight. […]

[3] = system: transglutaminase expression in HL60 cells; conditions: read-out: ED 50 of RA-dependent transglutaminase expression; cited from earlier work
[4] = system: RAR β mRNAs in PLC/PRF/5 cells; assay type: cell-based, human
Experimental: as §1, §2, §3, §4, §5
The two cDNA inserts were subcloned into M13 and used to generate high specific activity (greater than 10^9 c.p.m./μg) single-stranded probes by elongation of a sequencing primer with ^32P labelled dTTP (3000 Ci/mmol) and unlabelled nucleotides by Klenow polymerase. The resulting double-stranded DNA was digested using a unique site in the vector, fractioned on a urea/acrylamide sequencing gel, and the labelled single-stranded insert electroeluted. These probes (5×10^6 cpm/ml) were hybridized to the filters in 7% (w/v) sodium dodecyl sulfate (SDS), 0.5 M NaPO4 pH 6.5, 1 mM ethylenediaminetetraacetate (EDTA), and 1 mg/ml bovine serum albumin (BSA) at 68° C. overnight. The filters were washed in 1% SDS, 50 mM NaCl, 1 mM EDTA at 68° C. for 10 min and autoradiographed at −70° C. using Kodak XAR films and intensifying screens. A mouse β actin probe was used to rehybridize the filters and check that all lanes contained equal amounts of RNA.
The relative intensity of hybridization signals in Northern-blotting and run-on experiments was estimated using a Hoefer scanning densitometer and the appropriate computer program.

[5] = molecular target: T1, hap-ER chimaeric receptor (Homo sapiens, UniProt P10826, A104S/D127T/F149Y/F89A/G110A/H125P/I121D/K118G/K128N/K94Y/M120N/N119H/N129Q/N133D/N138K/Q146R/Q92N/R113K/R126A/R139S/S103W/S95A/T123M/T136R/V131T/V135N/Y142A); test: hap-ER chimaera trans-activation of oestrogen-responsive reporter gene (vit-tk-CAT); assay type: cell-based; conditions: RA at physiological concentrations
T1 construct: expressed in transfected cells
T1 sequence (P10826 1-448 isoform P10826-2 F82A/Q85N/K87Y/S88A/S96W/A97S/G103A/R106K/K111G/N112H/M113N/I114D/T116M/H118P/R119A/D120T/K121N/N122Q/V124T/N126D/V128N/T129R/N131K/R132S/Y135A/Q139R/F142Y): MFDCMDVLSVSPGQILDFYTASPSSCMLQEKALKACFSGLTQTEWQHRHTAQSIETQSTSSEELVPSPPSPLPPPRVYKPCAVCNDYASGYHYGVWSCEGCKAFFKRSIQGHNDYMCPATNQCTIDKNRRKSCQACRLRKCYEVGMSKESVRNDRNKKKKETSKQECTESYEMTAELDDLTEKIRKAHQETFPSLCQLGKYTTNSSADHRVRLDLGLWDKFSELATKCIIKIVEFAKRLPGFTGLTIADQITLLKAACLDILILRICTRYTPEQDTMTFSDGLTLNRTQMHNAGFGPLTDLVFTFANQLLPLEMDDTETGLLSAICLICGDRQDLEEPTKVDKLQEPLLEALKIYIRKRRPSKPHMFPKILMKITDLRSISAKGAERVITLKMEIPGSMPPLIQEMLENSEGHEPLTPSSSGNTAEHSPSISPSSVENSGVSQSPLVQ
Experimental: To test the possibility that the hap protein might also be a retinoid receptor, a chimaeric receptor was created by replacing the putative DNA binding domain of hap with that of the human oestrogen receptor (ER). The resulting hap-ER chimaera was then tested for its ability to trans-activate an oestrogen-responsive reporter gene (vit-tk-CAT) in the presence of possible receptor ligands. […] See Nature, 332:850-853 (1988).

RAR β = conditions: cited from earlier work
[6] = system: nuclear extracts from HeLa cells; test: T3 binding positive control with HeLa nuclear extracts
Description: The results were-negative as well when the experiment was repeated with (3H)-retinol, -retinoic acid, and -testosterone, which represent three putative ligands for hap whose receptors have not yet been cloned. Although it cannot excluded that hap may encode a hormone independent transcriptional activator, it is more likely that hap product, i.e. the hap protein, is α receptor for a presently unidentified hormone.

[7] = molecular target: T2, in vitro translated hap polypeptide (Homo sapiens, UniProt P10826); test: Hormone-binding assay with in vitro translated hap polypeptide; conditions: reticulocyte lysate; for specific binding of (125I)-labelled thyroid hormone to in vitro translated hap polypeptide: 0° C., filtration; for binding of (3H)-labelled ligand to in vitro translated hap polypeptide: overnight 0° C., Dextran coated charcoal
T2 construct: made in house; host or cells: rabbit reticulocyte lysate (in vitro translation of T7 transcripts of pCOD20)
T2 sequence (P10826 1-448 isoform P10826-2): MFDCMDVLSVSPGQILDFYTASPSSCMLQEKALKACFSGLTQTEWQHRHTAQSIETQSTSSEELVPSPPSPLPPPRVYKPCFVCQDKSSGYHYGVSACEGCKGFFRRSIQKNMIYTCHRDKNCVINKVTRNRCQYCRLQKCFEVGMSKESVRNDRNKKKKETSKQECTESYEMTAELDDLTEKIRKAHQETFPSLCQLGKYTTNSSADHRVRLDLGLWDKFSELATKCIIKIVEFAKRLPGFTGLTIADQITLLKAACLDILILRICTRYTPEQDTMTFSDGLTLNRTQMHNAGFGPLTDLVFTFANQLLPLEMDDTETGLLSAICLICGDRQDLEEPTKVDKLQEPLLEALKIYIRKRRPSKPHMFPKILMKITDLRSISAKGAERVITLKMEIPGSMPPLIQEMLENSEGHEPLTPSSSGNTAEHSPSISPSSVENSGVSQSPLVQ
Description: The ability to express functional receptors in vitro from cloned c-erbA/steroid receptor genes led to the use of an in vitro translation assay to identify a putative hap ligand.
The coding region of hap was cloned into pTZ18 plasmid vector to allow in vitro transcription with the T7 RNA polymerase and subsequent translation in reticulocyte lysates. More particularly, ^35S-methionine-labelled products synthesized using T7 polymerase-catalysed RNA transcripts were separated on a 12% SDS-polyacrylamide gel, which was fluorographed. (DMSO-PPO). The lanes in FIG. 5 are as follows:
pCOD20 and pCOD14 were linearized with HindIII. Capped mRNA was generated using 5 ug of DNA, 5 uM rNTP, 25 mM DTT, 100 U RNAsin (Promega), 50 U T7 Pol (Genofit) in 40 mM Tris pH 8, 8mM MgCl2, 2 mM spermidine, 50 mM NaCl, in 100 ul at 37° C. Capping was performed by omitting GTP and adding CAP (m^7 G (5′) ppp (5′) G) (Pharmacia) for the 15 first minutes of the reaction.
After at least 2 h of incubation at 0° C., free was separated from bound by filtration through millipore HAWP 02500 filters using 10 ml of ice cold buffer. For testosterone, retinol, retinoic acid 10 ul of lysate were added to 45 lambda of 20 mM Tris pH 7.3, 1 mM EDTA, 50 mM NaCl, 2 mM beta-mercaptoethanol and […], […] or […] (81 ci/mmol; 60 Ci/mmol; 46 Ci/mmol; Amersham). After an overnight incubation at 0° C. free was separated from bound by Dextran coated charcoal (0.5% Norit A−0.05% T70) and centrifugation. All experiments were performed in duplicates and parallel experiments were performed with 100 fold excess corresponding cold hormone.

Compound: CC1=C(/C=C/C(C)=C/C=C/C(C)=C/C(=O)O)C(C)(C)CCC1 [RA, All-trans-retinoic acid]
- effect on the level of RAR α mRNAs [1]: no effect
- RA-induced stimulation of the levels of RAR β mRNAs [2]: 50 fold
- pEC50 [3]: 7.30
- latency of induction of RAR β mRNAs ([4]; RA 10^−6 M): one
- time after which induction of RAR β mRNAs is complete ([4]; RA 10^−6 M): four
- magnitude of the RA-induced upregulation of RAR β mRNAs ([4]; densitometry of Northern blot, 4 hr): 10 fold
- inducing the expression of the reporter gene by the hap-ER chimaeric receptor [5]: effective

Compound: N[C@@H](Cc1cc(I)c(Oc2ccc(O)c(I)c2)c(I)c1)C(=O)O [T3, triiodothyronine]
- binding to nuclear extracts from HeLa cells [6]: detected

Compound: N[C@@H](Cc1cc(I)c(Oc2cc(I)c(O)c(I)c2)c(I)c1)C(=O)O [T4, thyroxine]
- specific binding of (125I)-labelled thyroid hormone to in vitro translated hap polypeptide [7]: No specific fixation

Compound: Cc1c2oc3c(C)ccc(C(=O)N[C@@H]4C(=O)N[C@H](C(C)C)C(=O)N5CCC[C@H]5C(=O)N(C)CC(=O)N(C)[C@@H](C(C)C)C(=O)O[C@@H]4C)c3nc-2c(C(=O)N[C@@H]2C(=O)N[C@H](C(C)C)C(=O)N3CCC[C@H]3C(=O)N(C)CC(=O)N(C)[C@@H](C(C)C)C(=O)O[C@@H]2C)c(N)c1=O [actinomycin D] (I: T[dV]P[Sar][NMeV] / II: T[dV]P[Sar][NMeV]; ester I:1-I:C, II:1-II:C; linker I:N-II:N via Actinocin(9to1))
- effect of inhibitor on the RA-induced increase in the levels of RAR β transcripts ([4]; RA 10^−6M, CH 10 μg/ml or AC 5 μg/ml, 4 hr): abolished

Compound: CC1=C(/C=C/C(C)=C/C=C/C(C)=C/CO)C(C)(C)CCC1 [retinol]
- binding of (3H)-labelled ligand to in vitro translated hap polypeptide [7]: negative

Compound: N[C@@H](Cc1ccc(Oc2cc(I)c(O)c(I)c2)c(I)c1)C(=O)O [reverse T3, 3,3′, 5′-triiodo-thyronine]
- specific binding of (125I)-labelled thyroid hormone to in vitro translated hap polypeptide [7]: No specific fixation

Compound: C[C@]12CC[C@H]3[C@@H](CCC4=CC(=O)CC[C@@]43C)[C@@H]1CC[C@@H]2O [testosterone]
- binding of (3H)-labelled ligand to in vitro translated hap polypeptide [7]: negative
